According to publication PMC7696940, “Effects of Rationally Designed Physico-Chemical Variants of the Peptide PuroA on Biocidal Activity towards Bacterial and Mammalian Cells” (International Journal of Molecular Sciences, 2020):
Converted amounts (≈) assume the structure as drawn. “And” between values parts separate entries of the source, which are not always exact repeats. Equal values may be shown once. Where no end group is shown, it is not given here.

Tests used:
[1] = tested on: HeLa cells; assay type: cell-based, human; conditions: MTT, 24 h, peptide up to 250 µg/mL; concentration causing 50% cell growth inhibition; mean of triplicate assays
Procedure: Cytotoxicity to human cervical carcinoma HeLa cells and mouse fibroblastic NIH-3T3 cells was determined using the MTT assay as per Scudiero et al. with minor modifications. The cells were maintained in Dulbecco’s Modified Eagle Medium (DMEM) with 10% foetal bovine serum (FBS) and 1% penicillin G in a humidified incubator (Heraeus Hera Cell incubator) at 37 °C with 5% CO2. They were seeded in 96-well microtiter plates at 1 × 10^4 cells/well and allowed to adhere for 24 h in the incubator. The medium was removed, and adherent cells were washed with PBS. Fresh media containing serially diluted peptides in PBS (final concentrations 4 to 250 µg/mL) were added and the cells incubated for 24 h. Cells without peptides were used as negative controls. Following incubations, the medium was removed, and adherent cells were washed with PBS. 150 µL of MTT (diluted to 0.33 mg/mL in DMEM) and the plates incubated for 3 h. The precipitated formazan was dissolved in 100 µL of DMSO and its absorbance measured at 570 nm. Cell viability was determined as: (OD570 nm peptide treated cells/(OD570 nm untreated cells) × 100. Positive cytotoxicity was defined as peptide concentration that causes 50% growth inhibition in a cell line (IC50). All tests were carried out in triplicate.

[2] = tested on: MRSA M173525; test: Inhibition of initial cell attachment (CV and MTT assays); assay type: cell-based, methicillin-resistant Staphylococcus aureus; conditions: polystyrene, 24 h, 37 °C, triplicate
Procedure: (§1) The effects of PuroA and other selected peptides (based on their antibacterial activity) on both the initial cell attachment and 6 h preformed biofilms of MRSA on polystyrene were tested as described by Jadhav et al., at their respective 0.5 × MIC, 1 × MIC, and 2 × MIC concentrations. All tests were conducted in triplicate. For testing the inhibition of initial cell attachment, 100 μL of peptide solutions were added to the microtitre plates, then mixed with 100 μL of M173525 cell suspension (1 × 10^6 CFU/mL, cultured in tryptic soy broth medium (TSB; Oxoid) containing 1% glucose), or 100 μL of sterile MilliQ water as negative control. The plates were incubated at 37 °C for 24 h to allow cell attachment. The biofilm formation was then assessed using CV and MTT assays. […] Peptide solutions (100 μL) were then added, the plates incubated at 37 °C for 1 h and the biofilms assessed.
(§2) The assay works as an indicator of attached living and non-living biomass. Indirect assessment of cell attachment of MRSA was estimated using the modified CV assay as per Jadhav et al.. After incubations of the plates (for 24 h or 1 h, as above), the culture medium from each well was removed gently and any non-adherent bacteria removed by washing the plates five times with sterile distilled water (dH2O). The plates were air-dried, then oven-dried at 60 °C for 1 h. The biofilm cells in the wells were stained with 100 μL of 1% CV and incubated for 15 min at room temperature. Excess stain was removed by washing the plates three times with sterile dH2O. Ethanol (95%, 125 µL) was transferred to each well to de-stain the cells. The de-staining solution from each well was then transferred to a new plate and its absorbance measured at 595 nm. The percentage inhibition of biomass formation concentration was calculated as: ((OD595 nm control well without peptide − OD5 95 well with peptide)/OD595 nm control well without peptide) × 100. All tests were conducted in triplicate.
(§3) A modified methylthiazotetrazolium (MTT) (3-[4,5-dimethyl thiazol-2-yl]-2, 5-diphenyltetrazolium bromide) reduction assay was used, wherein the blue product (MTT salt reduced to formazan by dehydrogenases) is taken as a respiratory indicator of live cells. Briefly, MTT (Sigma-Aldrich, Gillingham, UK) was dissolved in PBS to 5 mg/mL. After incubations of plates (for 24 h or 1 h, as above), the culture medium was gently removed and the plates air-dried. PBS (100 μL) and MTT (5 µL, 5 mg/mL) were added to each well and the plates incubated for 3 h at 37 °C. The insoluble purple product was dissolved in 100 µL of dimethyl sulphoxide (DMSO, Sigma-Aldrich, Gillingham, UK) and the absorbance measured at 570 nm. The % inhibition of metabolic activity was calculated as: ((OD570 nm control well without peptide − OD570 nm well with peptide)/OD570 nm control well without peptide) × 100. All tests were conducted in triplicate.

[3] = tested on: MRSA M180920; assay type: cell-based, methicillin-resistant Staphylococcus aureus; conditions: clinical isolate; MHB, 37 °C overnight; mode of three independent experiments
Procedure: (§4) The activity of peptides was determined against the Gram-positive Staphylococcus aureus (ATCC 25923), and the Gram-negative Escherichia coli (ATCC 25922) and Pseudomonas aeruginosa (ATCC 9027) bacteria. Selected peptides were also tested against two clinical isolates of methicillin-resistant Staphylococcus aureus (MRSA), M173525 and M180920, kindly provided by Dr P. B. Ward (Microbiology Department, Austin and Repatriation Medical Centre, Heidelberg West, Victoria, Australia). The Minimum inhibitory concentration (MIC) of peptides was determined by the microtitre broth dilution method, as described in Phillips et al.. Briefly, bacteria were grown in Mueller-Hinton Broth (MHB) at 37 °C overnight with shaking (200 rpm). The cultures were adjusted to 0.5 McFarland turbidity standard (approximately 1 × 10^8 colony forming units (CFU)/mL), then diluted 1:100 in MHB (1 × 10^6 CFU/mL). A total of 75 μL of these suspensions were mixed with 25 μL of peptide solutions (final concentrations 250 to 0.5 μg/mL) and the microtitre plates incubated overnight at 37 °C. Positive growth controls (inoculum and MHB, with no peptide) and sterility controls (0.01% glacial acetic) were also included. Post-incubations, the absorbance of cultures at 595 nm was measured using a microplate reader (POLARstar Omega, Germany). […] To evaluate salt sensitivity of peptides up to physiological levels (150 mM NaCl), overnight cultures of S. aureus and E. coli adjusted to 0.5 McFarland turbidity standard were diluted 1:100 in MHB containing 0, 50, 100 or 150 mM NaCl, and the MICs of peptides determined as above. All tests were conducted in triplicate. The results are shown as the mode of values obtained.

[4] = tested on: MRSA M173525; assay type: cell-based, methicillin-resistant Staphylococcus aureus; conditions: clinical isolate; MHB, 37 °C overnight; mode of three independent experiments
Procedure: as §4

[5] = tested on: MRSA M173525 biofilm; test: Inhibition of preformed 6 h biofilm (CV and MTT assays); assay type: cell-based, methicillin-resistant Staphylococcus aureus; conditions: 37 °C, triplicate
Procedure: as §1, §2, §3

Molecule | IC50 HeLa [1] [µg/mL] | Percentage of Inhibition of Initial MRSA Cells Attachment, CV ([2]; 0.5 × MIC) [%] | Percentage of Inhibition of Initial MRSA Cells Attachment, MTT ([2]; 0.5 × MIC) [%] | Percentage of Inhibition of Initial MRSA Cells Attachment, CV ([2]; 1 × MIC) [%] | Percentage of Inhibition of Initial MRSA Cells Attachment, MTT ([2]; 1 × MIC) [%] | Percentage of Inhibition of Initial MRSA Cells Attachment, CV ([2]; 2 × MIC) [%] | Percentage of Inhibition of Initial MRSA Cells Attachment, MTT ([2]; 2 × MIC) | MIC MRSA M180920 [3] [µg/mL] | MIC MRSA M173525 [4] [µg/mL] | % Inhibition of Preformed 6 h MRSA Biofilm after 1 h Incubation, CV ([5]; 0.5 × MIC) [%] | % Inhibition of Preformed 6 h MRSA Biofilm after 1 h Incubation, MTT ([5]; 0.5 × MIC) [%] | % Inhibition of Preformed 6 h MRSA Biofilm after 1 h Incubation, CV ([5]; 1 × MIC) [%] | % Inhibition of Preformed 6 h MRSA Biofilm after 1 h Incubation, MTT ([5]; 1 × MIC) [%] | % Inhibition of Preformed 6 h MRSA Biofilm after 1 h Incubation, CV ([5]; 2 × MIC) [%] | % Inhibition of Preformed 6 h MRSA Biofilm after 1 h Incubation, MTT ([5]; 2 × MIC) [%]
RKRWWRWWKWWKR-NH2 [Peptide P1] | 32 | 72 ± 3.1 | 92 ± 3.0 | 75 ± 1.9 | 95 ± 2.3 | 78 ± 6.1 | 95 ± 2.5% | 8 | 16 | 70 ± 6.9 | 93 ± 5.0 | 74 ± 5.8 | 95 ± 3.8 | 78 ± 3.1 | 95 ± 4.0
CC(C)[C@H](NC(=O)[C@@H]1CCCN1C(=O)[C@@H](N)Cc1ccccc1)C(=O)N[C@H](C(=O)N[C@@H](Cc1c[nH]c2ccccc12)C(=O)N[C@@H](CCCNC(=N)N)C(=O)N[C@@H](Cc1c[nH]c2ccccc12)C(=O)N[C@@H](Cc1c[nH]c2ccccc12)C(=O)N[C@@H](CCCCN)C(=O)N[C@@H](Cc1c[nH]c2ccccc12)C(=O)N[C@@H](Cc1c[nH]c2ccccc12)C(=O)N[C@@H](CCCCN)C(=O)NCC(N)=O)[C@@H](C)O [PuroA] | >250 | 70 ± 5.6 | 92 ± 1.5 | 75 ± 4.0 | 95 ± 1.1 | 79 ± 4.5 | 95% and 95 ± 0.5% | 16 (≈ 8.59 µM) | 16 (≈ 8.59 µM) | 68 ± 9.2 | 90 ± 2.5 | 75 ± 7.5 | 92 ± 4.0 | 77 ± 7.0 | 95 ± 2.6
WRWWKWW-NH2 [Peptide W7] | 250 | 69 ± 3.6 | 90 ± 2.9 | 75 ± 5.0 | 95 ± 4.0 | 76 ± 4.8 | 96 ± 1.5% | 8 | 8 | 67 ± 6.0 | 88 ± 2.5 | 75.5 ± 3.0 | 90 ± 4.7 | 75 ± 5.5 | 94 ± 0.5
WWRWWKWW-NH2 [WW] | 250 | 71.5 ± 3.5 | 90 ± 2.0 | 73 ± 6.2 | 95 ± 3.1 | 79 ± 7.5 | 96 ± 0.5% | 4 | 4 | 69 ± 7.8 | 91 ± 3.0 | 71 ± 4.5 | 92 ± 3.5 | 74 ± 2.0 | 95 ± 1.7
